In ChEMBL document CHEMBL4665654, “Design, synthesis and evaluation of antiproliferative activity of fluorinated betulinic acid” (Bioorg Med Chem, 2019):
Calls of active or inactive are those of the source. No cut-off for these calls is given here.

Legend:
[1] = Antiproliferative activity against human KB-VIN cells assessed as cell growth inhibition after 72 hrs by sulforhodamine B assay; type: functional, cell-based; details: KBVIN
[2] = tested on: MDA-MB-231; assay: Antiproliferative activity against human MDA-MB-231 cells assessed as cell growth inhibition after 72 hrs by sulforhodamine B assay; type: functional, cell-based; details: MDA-MB-231, 72 h
[3] = tested on: KB; assay: Antiproliferative activity against human KB cells assessed as cell growth inhibition after 72 hrs by sulforhodamine B assay; type: functional, cell-based
[4] = tested on: A549; assay: Antiproliferative activity against human A549 cells assessed as cell growth inhibition after 72 hrs by sulforhodamine B assay; type: functional, cell-based; details: A549, 72 h
[5] = tested on: MCF7; assay: Antiproliferative activity against human MCF7 cells assessed as cell growth inhibition after 72 hrs by sulforhodamine B assay; type: functional, cell-based; details: MCF7, 72 h
[6] = biological target: DNA topoisomerase 2-alpha (Homo sapiens) (UniProt P11388); assay: Inhibition of recombinant human topoisomerase-2alpha assessed as decrease in relaxation/nicking of kinetoplast DNA using kDNA as substrate at 100 uM after 15 mins by ethidium bromide staining based agarose gel electrophoresis analysis
Chain of DNA topoisomerase 2-alpha (Homo sapiens) (P11388 whole entry): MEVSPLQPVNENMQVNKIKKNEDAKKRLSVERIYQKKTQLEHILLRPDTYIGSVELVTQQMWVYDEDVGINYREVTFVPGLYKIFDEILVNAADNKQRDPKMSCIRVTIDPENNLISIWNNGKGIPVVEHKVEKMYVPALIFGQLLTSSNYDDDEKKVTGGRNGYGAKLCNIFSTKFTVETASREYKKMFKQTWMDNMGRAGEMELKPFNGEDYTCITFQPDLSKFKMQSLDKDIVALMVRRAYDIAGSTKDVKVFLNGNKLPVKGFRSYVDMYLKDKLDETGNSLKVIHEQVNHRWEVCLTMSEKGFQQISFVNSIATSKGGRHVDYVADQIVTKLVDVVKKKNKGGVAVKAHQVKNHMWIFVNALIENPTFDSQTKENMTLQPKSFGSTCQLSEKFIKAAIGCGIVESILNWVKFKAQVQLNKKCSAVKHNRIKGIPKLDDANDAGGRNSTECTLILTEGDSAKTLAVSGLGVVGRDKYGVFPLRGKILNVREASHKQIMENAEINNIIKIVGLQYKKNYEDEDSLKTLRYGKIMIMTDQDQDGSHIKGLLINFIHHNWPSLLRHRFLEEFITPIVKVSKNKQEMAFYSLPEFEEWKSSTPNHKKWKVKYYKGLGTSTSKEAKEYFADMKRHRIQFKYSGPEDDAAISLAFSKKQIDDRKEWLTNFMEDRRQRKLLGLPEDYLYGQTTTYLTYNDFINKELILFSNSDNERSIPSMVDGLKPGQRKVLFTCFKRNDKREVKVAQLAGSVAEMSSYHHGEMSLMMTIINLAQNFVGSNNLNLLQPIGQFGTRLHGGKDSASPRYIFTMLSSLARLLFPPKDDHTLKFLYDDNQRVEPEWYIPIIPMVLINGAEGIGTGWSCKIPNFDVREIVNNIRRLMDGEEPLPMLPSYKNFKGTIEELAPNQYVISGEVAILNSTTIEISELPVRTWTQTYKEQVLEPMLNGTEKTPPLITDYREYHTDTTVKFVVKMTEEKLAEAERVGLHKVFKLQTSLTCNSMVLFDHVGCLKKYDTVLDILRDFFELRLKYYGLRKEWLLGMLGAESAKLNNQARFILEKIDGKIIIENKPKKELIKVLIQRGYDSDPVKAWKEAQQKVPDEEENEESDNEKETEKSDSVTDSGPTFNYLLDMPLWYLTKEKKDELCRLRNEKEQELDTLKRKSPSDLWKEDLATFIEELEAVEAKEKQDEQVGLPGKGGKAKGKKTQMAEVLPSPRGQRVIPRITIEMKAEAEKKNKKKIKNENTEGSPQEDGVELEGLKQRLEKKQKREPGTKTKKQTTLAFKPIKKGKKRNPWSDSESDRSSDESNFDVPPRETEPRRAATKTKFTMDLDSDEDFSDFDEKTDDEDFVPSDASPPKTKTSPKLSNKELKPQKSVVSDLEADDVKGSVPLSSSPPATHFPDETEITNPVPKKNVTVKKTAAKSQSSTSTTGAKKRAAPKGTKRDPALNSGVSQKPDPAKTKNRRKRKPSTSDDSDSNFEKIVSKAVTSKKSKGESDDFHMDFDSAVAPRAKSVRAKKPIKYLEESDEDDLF

[7] = tested on: MCF7; assay: Inhibition of colony formation in human MCF7 cells at 10 to 40 uM of compound exposure followed by compound washout and subsequent incubation for 3 weeks by crystal violet staining based assay; type: functional, cell-based; details: dose microM 10-40
[8] = biological target: T1, DNA topoisomerase 1 (Homo sapiens) (UniProt P11387); assay: Inhibition of topoisomerase 1 in human MCF7 cells nuclear extract assessed as decrease in relaxation/nicking of supercoiled DNA using supercoiled DNA as substrate at 40 uM after 1 hr by ethidium bromide staining based agarose gel electrophoresis analysis; type: subcellular; details: Nucleus
T1 sequence (whole entry): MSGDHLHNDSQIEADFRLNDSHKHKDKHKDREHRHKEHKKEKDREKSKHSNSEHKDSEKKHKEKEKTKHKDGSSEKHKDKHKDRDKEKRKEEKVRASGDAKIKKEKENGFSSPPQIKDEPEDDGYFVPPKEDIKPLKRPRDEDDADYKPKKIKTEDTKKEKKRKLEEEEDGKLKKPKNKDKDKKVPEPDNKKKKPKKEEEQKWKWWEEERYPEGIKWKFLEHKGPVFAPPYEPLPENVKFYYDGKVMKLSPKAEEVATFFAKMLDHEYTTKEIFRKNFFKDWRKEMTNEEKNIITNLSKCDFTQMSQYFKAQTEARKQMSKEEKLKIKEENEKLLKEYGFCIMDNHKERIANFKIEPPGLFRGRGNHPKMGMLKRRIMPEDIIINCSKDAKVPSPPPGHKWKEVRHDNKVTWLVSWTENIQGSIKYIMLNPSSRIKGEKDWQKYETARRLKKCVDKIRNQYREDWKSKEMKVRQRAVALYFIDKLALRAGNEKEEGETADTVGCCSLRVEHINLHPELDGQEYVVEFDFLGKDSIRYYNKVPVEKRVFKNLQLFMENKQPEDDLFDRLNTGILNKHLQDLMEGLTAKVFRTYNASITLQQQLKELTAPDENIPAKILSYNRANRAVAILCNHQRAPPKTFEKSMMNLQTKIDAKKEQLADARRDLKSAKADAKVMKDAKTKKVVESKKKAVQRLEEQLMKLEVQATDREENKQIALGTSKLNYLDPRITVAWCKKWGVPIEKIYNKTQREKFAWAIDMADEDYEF

[9] = biological target: T1, DNA topoisomerase 1 (Homo sapiens); assay: Inhibition of recombinant human topoisomerase 1 assessed as decrease in relaxation/nicking of supercoiled DNA using supercoiled DNA as substrate at 30 uM after 1 hr by ethidium bromide staining based agarose gel electrophoresis analysis
[10] = tested on: MCF7; assay: Induction of apoptosis in human MCF7 cells at 40 uM incubated for 24 to 72 hrs by Annexin V-FITC/propidium iodide staining-based flow cytometric analysis; type: functional, cell-based; details: time hrs 24-72
[11] = biological target: DNA topoisomerase 2-alpha (Homo sapiens) (UniProt P11388); assay: Inhibition of topoisomerase-2alpha in human MCF7 cells nuclear extract assessed as decrease in relaxation/nicking of kinetoplast DNA using kDNA as substrate at 40 uM after 15 mins by ethidium bromide staining based agarose gel electrophoresis analysis; type: subcellular; details: Nucleus
[12] = biological target: T1, DNA topoisomerase 1 (Homo sapiens); assay: Inhibition of recombinant human topoisomerase 1 assessed as decrease in relaxation/nicking of supercoiled DNA using supercoiled DNA as substrate at 10 uM after 1 hr by ethidium bromide staining based agarose gel electrophoresis analysis
[13] = tested on: MCF7; assay: Induction of apoptosis in human MCF7 cells assessed as increase in cleaved caspase-7 protein expression at 20 to 40 uM incubated for 72 hrs by Western blot analysis; type: functional, cell-based; details: dose microM 20-40, time 72.0 hrs
[14] = tested on: MCF-10A; assay: Cytotoxicity against human MCF-10A cells assessed as cell viability at 10 uM after 72 hrs by MTT assay; type: cell-based
[15] = biological target: T1, DNA topoisomerase 1 (Homo sapiens); assay: Inhibition of recombinant human topoisomerase 1 assessed as decrease in relaxation/nicking of supercoiled DNA using supercoiled DNA as substrate after 1 hr by ethidium bromide staining based agarose gel electrophoresis analysis; details: dose microM 1-30, time 1.0 hrs
[16] = tested on: MCF7; assay: Induction of apoptosis in human MCF7 cells at 20 to 40 uM by Annexin V-FITC/propidium iodide staining-based flow cytometric analysis; type: functional, cell-based; details: dose microM 20-40, time hrs 24-72, TDE = time-dependent effect
[17] = tested on: MCF7; assay: Induction of apoptosis in human MCF7 cells incubated for 24 to 72 hrs by Annexin V-FITC/propidium iodide staining-based flow cytometric analysis; type: functional, cell-based; details: dose microM 20-40, time hrs 24-72
[18] = tested on: MCF7; assay: Induction of apoptosis in human MCF7 cells assessed as increase in cleaved caspase-9 protein expression at 20 to 40 uM incubated for 72 hrs by Western blot analysis; type: functional, cell-based; details: dose microM 20-40, time 72.0 hrs
[19] = biological target: T1, DNA topoisomerase 1 (Homo sapiens); assay: Inhibition of recombinant human topoisomerase 1 assessed as decrease in relaxation/nicking of supercoiled DNA using supercoiled DNA as substrate at 3 uM after 1 hr by ethidium bromide staining based agarose gel electrophoresis analysis
[20] = biological target: DNA topoisomerase 2-alpha (Homo sapiens) (UniProt P11388); assay: Inhibition of recombinant human topoisomerase-2alpha assessed as decrease in relaxation/nicking of kinetoplast DNA using kDNA as substrate after 15 mins by ethidium bromide staining based agarose gel electrophoresis analysis; details: dose microM 30-100, time 15.0 min
[21] = biological target: DNA topoisomerase 2-alpha (Homo sapiens) (UniProt P11388); assay: Inhibition of recombinant human topoisomerase-2alpha assessed as decrease in relaxation/nicking of kinetoplast DNA using kDNA as substrate at 30 uM after 15 mins by ethidium bromide staining based agarose gel electrophoresis analysis
[22] = tested on: MCF7; assay: Modulation of DNA repair related gene expression in human MCF7 cells at 40 uM after 24 hrs by cDNA microarray analysis; type: functional, cell-based
[23] = Cytotoxicity against human MCF-10A cells assessed as cell viability at 30 uM after 72 hrs by MTT assay; type: cell-based; details: read-out: Activity
[24] = tested on: MCF7; assay: Modulation of DNA replication associated gene expression in human MCF7 cells at 40 uM after 24 hrs by cDNA microarray analysis; type: functional, cell-based
[25] = tested on: MCF7; assay: Induction of apoptosis in human MCF7 cells assessed as increase in cleaved PARP protein expression at 20 to 40 uM incubated for 72 hrs by Western blot analysis; type: functional, cell-based; details: dose microM 20-40, time 72.0 hrs
[26] = tested on: MCF7; assay: Antiproliferative activity against human MCF7 cells assessed as cell killing at 30 uM after 72 hrs by MTT assay; type: functional

Row | SMILES | IC50 [1] | IC50 [2] | IC50 [3] | IC50 [4] | IC50 [5] | also measured
1 | C=C(C)[C@@H]1CC[C@]2(C(=O)O)CC[C@]3(C)[C@H](CC[C@@H]4[C@@]5(C)CC(F)[C@H](OC(=O)CC(C)(C)C(=O)O)C(C)(C)[C@@H]5CC[C@]43C)[C@@H]12 (some centres not stated) | > 10 µM | > 10 µM | > 10 µM | > 10 µM | > 10 µM | 
2 | C=C(C)[C@@H]1CC[C@]2(C(=O)O)CC[C@]3(C)[C@H](CC[C@@H]4[C@@]5(C)CC[C@@](O)(C(F)(F)F)C(C)(C)[C@@H]5CC[C@]43C)[C@@H]12 | 6 µM | > 10 µM | 5.9 µM | 5.4 µM | 7.8 µM | 
3 | C=C(C)[C@@H]1CC[C@]2(C(=O)O)CC[C@]3(C)[C@H](CC[C@@H]4[C@@]5(C)C[C@@H](F)[C@H](O)C(C)(C)[C@@H]5CC[C@]43C)[C@@H]12 | 6.7 µM | 9 µM | 6.7 µM | 5.6 µM | 15.3 µM | 
4 | C=C(C)[C@@H]1CC[C@]2(C(=O)OC)CC[C@]3(C)[C@H](CC[C@@H]4[C@@]5(C)CC(F)[C@H](O)C(C)(C)[C@@H]5CC[C@]43C)[C@@H]12 (mixture of isomers) | > 10 µM | > 10 µM | > 10 µM | > 10 µM | > 10 µM | 
5 | C=C(C)[C@@H]1CC[C@]2(C(=O)OC)CC[C@]3(C)[C@H](CC[C@@H]4[C@@]5(C)CC(F)[C@H](OC(=O)CC(C)(C)C(=O)O)C(C)(C)[C@@H]5CC[C@]43C)[C@@H]12 (some centres not stated) | > 10 µM | > 10 µM | > 10 µM | > 10 µM | > 10 µM | 
6 | C=C(C)[C@@H]1CC[C@]2(C(=O)OC)CC[C@]3(C)[C@H](CC[C@@H]4[C@@]5(C)CC[C@@](O)(C(F)(F)F)C(C)(C)[C@@H]5CC[C@]43C)[C@@H]12 | > 10 µM | > 10 µM | > 10 µM | > 10 µM | > 10 µM | 
7 | C=C(C)[C@@H]1CC[C@]2(C(=O)OCc3ccc(Cl)cc3)CC[C@]3(C)[C@H](CC[C@@H]4[C@@]5(C)C[C@H](F)C(=O)C(C)(C)[C@@H]5CC[C@]43C)[C@@H]12 | > 40 µM | > 40 µM | > 40 µM | > 40 µM | > 40 µM | 
8 | C=C(C)[C@@H]1CC[C@]2(C(=O)OCc3ccc(Cl)cc3)CC[C@]3(C)[C@H](CC[C@@H]4[C@@]5(C)CCC(=O)C(C)(C)[C@@H]5CC[C@]43C)[C@@H]12 | > 40 µM | > 40 µM | > 40 µM | > 40 µM | > 40 µM | 
9 | COc1cc([C@@H]2c3cc4c(cc3[C@@H](O[C@@H]3O[C@@H]5CO[C@@H](C)O[C@H]5[C@H](O)[C@H]3O)[C@H]3COC(=O)[C@H]23)OCO4)cc(OC)c1O |  |  |  |  |  | inhibition [6]: Active
10 | C=C(C)[C@@H]1CC[C@]2(C(=O)O)CC[C@]3(C)[C@H](CC[C@@H]4[C@@]5(C)CC[C@H](O)C(C)(C)[C@@H]5CC[C@]43C)[C@@H]12 [BETULINIC ACID] | 30.7 µM | > 40 µM | 28.7 µM | 29.5 µM | > 40 µM | inhibition [6]: inactive; inhibition [7]: Active; inhibition [8]: inactive; inhibition [9]: Active; Activity [10]: Active; inhibition [11]: inactive; inhibition [12]: inactive
11 | C=C(C)[C@@H]1CC[C@]2(C(=O)OCc3ccc(Cl)cc3)CC[C@]3(C)[C@H](CC[C@@H]4[C@@]5(C)CC[C@@](O)(C(F)(F)F)C(C)(C)[C@@H]5CC[C@]43C)[C@@H]12 | > 40 µM | > 40 µM | > 40 µM | > 40 µM | > 40 µM | 
12 | C=C(C)[C@@H]1CC[C@]2(C(=O)OCc3ccc(Cl)cc3)CC[C@]3(C)[C@H](CC[C@@H]4[C@@]5(C)C[C@@H](F)C(=O)C(C)(C)[C@@H]5CC[C@]43C)[C@@H]12 | > 40 µM | > 40 µM | > 40 µM | > 40 µM | > 40 µM | 
13 | C=C(C)[C@@H]1CC[C@]2(C(=O)O)CC[C@]3(C)[C@H](CC[C@@H]4[C@@]5(C)C[C@H](F)[C@H](O)C(C)(C)[C@@H]5CC[C@]43C)[C@@H]12 | 6 µM | 12.4 µM | 6.1 µM | 4.5 µM | 14.4 µM | 
14 | C=C(C)[C@@H]1CC[C@]2(C(=O)O)CC[C@]3(C)[C@H](CC[C@@H]4[C@@]5(C)CC(F)[C@H](O)C(C)(C)[C@@H]5CC[C@]43C)[C@@H]12 (mixture of isomers) | 7 µM | 11 µM | 6.5 µM | 6.1 µM | 9.2 µM | Activity [13]: Active; Activity [14]: Non-Toxic; inhibition [7]: Active; inhibition [15]: Dose-dependent effect; Activity [16]: Tde; Activity [17]: Dose-dependent effect; inhibition [8]: Active; Activity [18]: Active; inhibition [19]: Active; inhibition [20]: Dose-dependent effect; inhibition [21]: Active; Activity [22]: Active; viability at 72 h, 30 µM [23]: 80%; inhibition [11]: Active; Activity [24]: Active; inhibition [12]: Active; Activity [25]: Active; Activity [26]: >80%
15 | CC(=O)O[C@H]1C(=O)[C@@]2(C)[C@H]([C@H](OC(=O)c3ccccc3)[C@]3(O)C[C@H](OC(=O)[C@H](O)[C@@H](NC(=O)c4ccccc4)c4ccccc4)C(C)=C1C3(C)C)[C@]1(OC(C)=O)CO[C@@H]1C[C@@H]2O [PACLITAXEL] | 2.9 µM |  |  |  |  | 
16 | C=C(C)[C@@H]1CC[C@]2(C(=O)OC)CC[C@]3(C)[C@H](CC[C@@H]4[C@@]5(C)CC(F)C(=O)C(C)(C)[C@@H]5CC[C@]43C)[C@@H]12 (some centres not stated) | > 10 µM | > 10 µM | > 10 µM | > 10 µM | > 10 µM | 
